Values of other authors as cited in US20060163529A1, “Water-based coolant fluid for engine applications” (Neste Oil Oyj, priority 2002, published 2006).

Test system: rats
Settings: tested orally in rats

Compound	LD50
C[N+](C)(C)CC(=O)O [Trimethyl glycine, trimethyl glycine]	11 200 mg/kg
CC(O)CO (centres unmarked) [Propylene glycol, propylene glycol]	20 000 mg/kg
